The test system of the test is Cystic fibrosis transmembrane conductance regulator (Homo sapiens), P13569 [F508del]. Description: Corrector activity at CFTR F508del mutant (unknown origin) expressed in human CFBE41o cells assessed as iodide influx at 10 uM after 24 hrs by HS-YFP assay. It counts as cell-based.

Molecules are shown by their SMILES. The source made the active and inactive calls. How the calls were made is not given here.

Chain of Cystic fibrosis transmembrane conductance regulator (Homo sapiens), P13569 [F508del] (P13569 as listed by the source): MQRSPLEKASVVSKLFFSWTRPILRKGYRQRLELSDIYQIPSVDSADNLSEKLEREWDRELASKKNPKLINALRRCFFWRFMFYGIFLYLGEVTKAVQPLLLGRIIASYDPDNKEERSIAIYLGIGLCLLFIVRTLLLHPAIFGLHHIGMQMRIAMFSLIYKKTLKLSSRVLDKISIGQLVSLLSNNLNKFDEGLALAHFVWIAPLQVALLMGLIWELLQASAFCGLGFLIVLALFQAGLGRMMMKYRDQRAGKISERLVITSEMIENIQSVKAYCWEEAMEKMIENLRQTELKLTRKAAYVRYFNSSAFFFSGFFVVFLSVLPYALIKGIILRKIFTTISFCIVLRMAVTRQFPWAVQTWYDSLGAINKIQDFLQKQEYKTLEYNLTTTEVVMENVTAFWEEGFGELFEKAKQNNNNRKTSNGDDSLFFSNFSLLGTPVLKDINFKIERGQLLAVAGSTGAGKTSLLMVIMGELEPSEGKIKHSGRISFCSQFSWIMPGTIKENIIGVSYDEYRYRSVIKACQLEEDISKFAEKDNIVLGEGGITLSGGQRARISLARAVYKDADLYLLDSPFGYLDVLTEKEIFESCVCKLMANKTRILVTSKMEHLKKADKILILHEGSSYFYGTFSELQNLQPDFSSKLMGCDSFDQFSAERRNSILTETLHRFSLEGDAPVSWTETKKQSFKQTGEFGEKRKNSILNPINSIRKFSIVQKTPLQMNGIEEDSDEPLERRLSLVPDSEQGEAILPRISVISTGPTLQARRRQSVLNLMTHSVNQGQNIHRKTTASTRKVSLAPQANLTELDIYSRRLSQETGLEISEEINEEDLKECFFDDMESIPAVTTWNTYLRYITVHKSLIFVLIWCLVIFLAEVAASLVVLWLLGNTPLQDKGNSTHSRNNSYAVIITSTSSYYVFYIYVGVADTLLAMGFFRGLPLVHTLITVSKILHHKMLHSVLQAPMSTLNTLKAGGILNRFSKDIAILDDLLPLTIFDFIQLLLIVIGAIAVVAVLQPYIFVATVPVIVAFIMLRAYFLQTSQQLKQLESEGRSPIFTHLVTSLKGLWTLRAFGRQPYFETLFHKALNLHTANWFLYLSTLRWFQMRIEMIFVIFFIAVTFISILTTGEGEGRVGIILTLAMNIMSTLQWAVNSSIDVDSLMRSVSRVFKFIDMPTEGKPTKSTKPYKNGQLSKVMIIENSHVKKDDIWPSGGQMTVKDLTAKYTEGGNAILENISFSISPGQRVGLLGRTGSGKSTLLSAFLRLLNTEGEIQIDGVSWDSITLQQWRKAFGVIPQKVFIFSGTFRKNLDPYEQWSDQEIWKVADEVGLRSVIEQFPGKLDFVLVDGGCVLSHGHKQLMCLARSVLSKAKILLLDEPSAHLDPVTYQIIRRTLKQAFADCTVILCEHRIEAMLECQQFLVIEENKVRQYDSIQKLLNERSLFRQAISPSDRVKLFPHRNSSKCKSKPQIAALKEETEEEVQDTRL

As for `CCCSc1cccc(Nc2nc(-c3cccc(Cl)c3)cs2)c1`, the result was inactive.

With `Brc1ccc(-c2csc(NCc3ccccc3)n2)cc1`, the result was inactive.

With `Sc1cccc(Nc2nc(-c3cccc(Cl)c3)cs2)c1`, the result was inactive. In the case of `CSc1cccc(Nc2nc(-c3ccc4sccc4c3)cs2)c1`, the result was Active. For `CCc1ccc(Nc2nc(-c3cccc(Cl)c3)cs2)cc1SC` the value was “Active”.

Regarding `CSc1cccc(Nc2nc(-c3ccc(Cl)cc3Cl)cs2)c1`, the result was inactive.

Consider `CSc1cccc(Nc2nc(-c3ccco3)cs2)c1`, for which the result was inactive.

Consider `COc1ccccc1-c1csc(Nc2cccc(SC)c2)n1`, for which the outcome was inactive. As for `CSc1cccc(Nc2nc(-c3nc4ccccc4s3)cs2)c1`, the entry is “inactive”. As for `CSc1cccc(Nc2nc(-c3ccc(S(C)(=O)=O)cc3)cs2)c1`, the entry is “inactive”; as for `CSc1cccc(Nc2nc(-c3ccc(Cl)c(C)c3)cs2)c1`, “inactive”. Turning to `CSc1cccc(Nc2nc(-c3c(Cl)ccc(F)c3Cl)cs2)c1`, the outcome was inactive. For `CSc1cccc(Nc2nc(-c3ccc(Cl)c([N+](=O)[O-])c3)cs2)c1` the value was “inactive”. For `CSc1cccc(Nc2nc(-c3ccc(O)c(O)c3)cs2)c1` the value was “inactive”. `CSc1cccc(N(Cc2ccccc2)c2nc(-c3cccc(Cl)c3)cs2)c1`: the result was inactive. For `CSc1cccc(Nc2nc(-c3cc(Cl)ccc3O)cs2)c1` the value was “Active”. For `CSc1cccc(Nc2nc(-c3ccc4c(c3)OCCCO4)cs2)c1`, the outcome was inactive. As for `CSc1cccc(Nc2nc(C)cs2)c1`, the entry is “inactive”. For `CSc1cccc(Nc2nc(-c3cc(C(C)(C)C)c(O)c(C(C)(C)C)c3)cs2)c1` the value was “inactive”; for `O=C(Nc1nc(-c2ccc(Br)cc2)cs1)c1ccccc1`, “inactive”. As for `CSc1cccc(Nc2nc(-c3cccc(I)c3)cs2)c1`, the entry is “inactive”; as for `CSc1cccc(Nc2nc(-c3cccc(F)c3)cs2)c1`, “inactive”. Consider `CSc1cccc(Nc2nc(-c3ccc(Cl)cc3)c(-c3ccc(C)cc3)s2)c1`, for which the result was inactive. Regarding `CSc1cccc(Nc2nc(-c3cccc(NC(C)=O)c3)cs2)c1`, the outcome was inactive. For `CCN(CC)c1ccc(-c2csc(Nc3cccc(SC)c3)n2)cc1`, the result was inactive. On to `CSc1cccc(Nc2nc(-c3cccc(OCC(=O)OC(C)(C)C)c3)cs2)c1`, for which the outcome was inactive. With `CSc1cccc(Nc2nc3ccc(Br)cc3s2)c1`, the outcome was inactive. Take `CSc1cccc(Nc2nc(-c3ccc4c(c3)C(C)(C)CCC4(C)C)cs2)c1`: the outcome was inactive. For `CSc1cccc(Nc2nc(-c3ccc(C(F)(F)F)cc3)cs2)c1` the value was “inactive”. For `CSc1cccc(Nc2nc(-c3cnc(CS(=O)(=O)c4ccccn4)s3)cs2)c1` the value was “inactive”. As for `CSc1cccc(Nc2nc(-c3ccc(Br)c([N+](=O)[O-])c3)cs2)c1`, the result was inactive. Regarding `CSc1cccc(Nc2nc(-c3cc(Cl)ccc3Cl)cs2)c1`, the result was inactive. Consider `CSc1cccc(Nc2nc(-c3ccccn3)cs2)c1`, for which the result was inactive. Consider `CSc1cccc(Nc2nc(-c3cccc(C(F)(F)F)c3)cs2)c1`, for which the outcome was inactive. For `CSc1cccc(Nc2nc(-c3cc(-c4ccc(Cl)cc4)no3)cs2)c1` the value was “inactive”.

For `COc1ccc(-c2csc(Nc3cccc(SC)c3)n2)cc1Cl`, the result was inactive. On to `CSc1cccc(Nc2nc(-c3cccc(Br)c3)cs2)c1`, for which the outcome was Active. Consider `O=C(Nc1nc(-c2ccc(Br)cc2)cs1)c1ccccc1O`, for which the outcome was inactive. Consider `CSc1cccc(Nc2nc(-c3cc(Br)ccc3O)cs2)c1`, for which the outcome was inactive. Turning to `CSc1cccc(Nc2nc(-c3cccnc3)cs2)c1`, the result was inactive. Turning to `CSc1cccc(Nc2nc(-c3cc(OCC(=O)O)c(OCC(=O)O)c(OCC(=O)O)c3)cs2)c1`, the result was inactive. As for `CSc1cccc(Nc2nc(-c3ccccc3Cl)cs2)c1`, the outcome was inactive.

`CSc1cccc(Nc2nc(-c3cc(Cl)cc(Cl)c3O)cs2)c1`: the result was inactive. As for `CC(=O)Oc1ccccc1C(=O)Nc1nc(-c2ccc(Br)cc2)cs1`, the entry is “inactive”; as for `CSc1cccc(Nc2nc(-c3nc(C)cs3)cs2)c1`, “inactive”.

For `COc1ccc(-c2csc(Nc3cccc(SC)c3)n2)cc1`, the outcome was inactive.

Regarding `CSc1cccc(Nc2nc(-c3nnn(-c4cc(Cl)cc(Cl)c4)c3C)cs2)c1`, the result was inactive. With `CSc1cccc(Nc2nc(-c3cccc(SC)c3)cs2)c1`, the outcome was inactive. For `CSc1cccc(Nc2nc(-c3ccccc3C)cs2)c1` the value was “inactive”; for `CSc1cccc(Nc2nc(-c3ccc4c(c3)ncn4C)cs2)c1`, “inactive”. For `CCSc1cccc(Nc2nc(-c3cccc(Cl)c3)cs2)c1` the value was “inactive”; for `CSc1cccc(Nc2nc(-c3c(-c4ccccc4)noc3C)cs2)c1`, “inactive”. In the case of `CSc1cccc(Nc2nc(-c3cc(Cl)cc(OC(F)(F)F)c3)cs2)c1`, the result was inactive. As to `CSc1cccc(Nc2nc(-c3cccc(O)c3)cs2)c1`, the outcome was inactive. For `CSc1cccc(Nc2nc(-c3ccsc3)cs2)c1` the value was “inactive”; for `CSc1cccc(Nc2nc(-c3cc(OC(C)=O)c(OC(C)=O)c(OC(C)=O)c3)cs2)c1`, “inactive”; for `COc1cc2c(cc1OC)CN(c1csc(Nc3cccc(SC)c3)n1)CC2`, “inactive”.

Turning to `CCCCCc1ccc(-c2csc(Nc3cccc(SC)c3)n2)cc1`, the result was inactive. As for `CSc1cccc(Nc2nc(-c3nc4ccccc4n3C)cs2)c1`, the entry is “inactive”. For `CSc1cccc(Nc2nc(-c3ccc(C)cc3C)cs2)c1` the value was “inactive”; for `CSc1cccc(Nc2nc(-c3ccc(F)c(Cl)c3)cs2)c1`, “Active”; for `CSc1cccc(Nc2nc(-c3ccc(CC(F)(F)F)cc3)cs2)c1`, “inactive”. For `CSc1cccc(Nc2nc(-c3cc(F)cc(Cl)c3)cs2)c1` the value was “inactive”. For the molecule `CSc1cccc(Nc2nc(-c3cccc([N+](=O)[O-])c3)cs2)c1`, the outcome was inactive. Take `CSc1cccc(Nc2nc(-c3cccc(Cl)c3)c(C)s2)c1`: the result was inactive.

`Brc1ccc(-c2csc(NC3CCCCC3)n2)cc1`: the outcome was inactive. Regarding `CSc1cccc(Nc2nc(-c3cc(C)cs3)cs2)c1`, the result was inactive.

`CSc1cccc(Nc2nc(-c3ccc([N+](=O)[O-])cc3)cs2)c1`: the result was inactive. As for `COc1ccc(-c2csc(Nc3cccc(SC)c3)n2)c(OC)c1`, the entry is “inactive”; as for `CSc1cccc(Nc2nc(-c3cccc(OCC(=O)O)c3)cs2)c1`, “inactive”.

On to `CSc1cccc(Nc2nc(-c3cc4ccccc4oc3=O)cs2)c1`, for which the outcome was inactive. As for `CSc1cccc(Nc2nc(-c3ccccc3)c(C(=O)c3ccccc3)s2)c1`, the entry is “inactive”; as for `CSc1cccc(Nc2nc(Cc3ccc(Br)cc3)cs2)c1`, “inactive”. As for `CSc1cccc(Nc2nc(CC(=O)Nc3ccccc3)cs2)c1`, the entry is “inactive”. For `CSc1cccc(Nc2nc(-c3cn(-c4ccccc4)c(C)n3)cs2)c1`, the result was inactive. As for `CSc1cccc(Nc2nc(-c3cnc4ccccc4c3)cs2)c1`, the entry is “inactive”.

Take `CSc1cccc(N(C)c2nc(-c3cccc(Cl)c3)cs2)c1`: the outcome was inactive. As for `CCCOc1ccc(-c2csc(Nc3cccc(SC)c3)n2)cc1`, the result was inactive. As for `CSc1cccc(Nc2nc(-c3ccccc3)c(C)s2)c1`, the entry is “inactive”. `Brc1ccc(-c2csc(N3CCCCC3)n2)cc1`: the result was inactive. For `CSc1cccc(Nc2nc(-c3cc(Cl)c(O)c(Cl)c3)cs2)c1` the value was “Active”; for `CSc1cccc(Nc2nc(-c3ccc(Br)cc3)c(C)s2)c1`, “inactive”. For `Brc1ccc(-c2csc(N(Cc3ccccc3)Cc3ccccc3)n2)cc1` the value was “inactive”; for `CSc1cccc(Nc2nc(-c3cc4ccccc4o3)cs2)c1`, “inactive”.

For the molecule `O=C(Nc1nc(-c2ccc(Br)cc2)cs1)c1ccncc1`, the result was inactive. As for `CSc1cccc(Nc2nc(-c3ccc(CCCl)cc3)cs2)c1`, the entry is “inactive”; as for `CSc1cccc(Nc2nc(-c3ccc(-c4ccccn4)s3)cs2)c1`, “inactive”. As for `CSc1cccc(Nc2nc(-c3cc(Cl)cc(Cl)c3F)cs2)c1`, the entry is “inactive”; as for `CSc1cccc(Nc2nc(-c3ccc4c(c3)OCCO4)cs2)c1`, “inactive”; as for `CSc1cccc(Nc2nc(-c3ccc4c(c3)NC(=O)CS4)cs2)c1`, “inactive”.

Take `CSc1cccc(Nc2nc(-c3cc(C)n(-c4ccc(Cl)cc4)c3C)cs2)c1`: the result was inactive. On to `CSc1cccc(Nc2nc(-c3cccc(C)c3)cs2)c1`, for which the result was inactive. As for `CCCCCc1csc(-c2csc(Nc3cccc(SC)c3)n2)c1`, the entry is “inactive”; as for `Nc1nc(-c2ccc(Br)cc2)cs1`, “inactive”. For `CSc1cccc(Nc2nc(-c3cccc(Cl)c3Cl)cs2)c1` the value was “inactive”.

For the origin of these results see ChEMBL document CHEMBL3596188, “Synthesis and structure-activity relationship of aminoarylthiazole derivatives as correctors of the chloride transport defect in cystic fibrosis” (Eur J Med Chem, 2015).
